Results published in patent publication EP0400330A1, “Oxidation hair dyes” (Wella Aktiengesellschaft, priority 1989, dated 1990).

Key:
[1] = Mutagenicity test battery (Ames, CA-Test, Mouse Lymphoma Test, SCE-Test), individual test not specified; assay type: cell-based; details: in some of the tests Ames, not said which
Source text: (§1) Der große und überraschende technische Fortschritt, der bei der Verwendung von 2-(2,5-Diaminophenyl)ethanol mit den vorstehend genannten Kupplersubstanzen erzielt werden kann, liegt vielmehr in den physiologischen Eigenschaften begründet.

[2] = Sensitising property (test not described)
Source text: Das 2-(2,5-Diaminophenyl)ethanol wird seit einiger Zeit als Bestandteil von Oxidationshaarfärbemitteln in der Patentliteratur erwähnt. Als möglicher Bestandteil von Oxidationshaarfärbemitteln ist es zum Beispiel in der eigenen europäischen Offenlegungsschrift 0 166 155 sowie in den eigenen deutschen Offenlegungsschriften 3 625 916, 3 627 398 und 3 706 565 sowie auch in der DE-OS 3 545 371 aufgeführt. Ferner fällt das 2-(2,5-Diaminophenyl)ethanol unter eine allgemeine Formel für 1-Hydroxyalkyl-2,5-diaminobenzolverbindungen, welche als Entwicklersubstanzen für Oxidationshaarfärbemittel in der eigenen europäischen Offenlegungsschrift 0 007 537 empfohlen werden. Die dort mehrfach konkret genannte Verbindung 1-Hydroxymethyl-2,5-diaminobenzol (2,5Diaminobenzylalkohol) hat sich jedoch als sensibilisierend erwiesen. Die ausgezeichnete Eignung der Entwicklersubstanz 2-(2,5-Diaminophenyl)-ethanol in Kombination mit den vorstehend genannten Kupplersubstanzen zur Lösung der gestellten Aufgabe wurde bisher nicht erkannt. Dementsprechend sind die erfindungsgemäßen EntwicklersubstanzKupplersubstanz-Kombinationen in keiner dieser Druckschriften beschrieben.
Die konkrete Darstellung des 2-(2,5-Diaminophenyl)ethanols ist bisher ebenfalls weder beschrieben noch hat diese Entwicklersubstanz Eingang in die Haarfärbepraxis gefunden. […]

Salmonella typhimurium [3] = test: Ames mutagenicity test of the developer substance; assay type: cell-based
Source text: as §1

CHO-Zellen = test: Chromosome aberration test in vitro (CA-Test); assay type: cell-based
Source text: as §1

Mouse Lymphoma = Mouse Lymphoma Test (point mutation in vitro); assay type: cell-based; details: Punktmutation in vitro
Source text: as §1

[4] = Sister-Chromatide-Exchange-Test (SCE-Test); assay type: cell-based
Source text: as §1

[5] = system: Salmonella typhimurium-Stämmen TA97, TA98 und TA100; test: Ames test of dyed hair strands; assay type: cell-based; design: key: +: mutagen; (+): schwach mutagen; -: nicht mutagen; details: hair dyed 30 Minuten at 40 Grad Celsius, in Anwesenheit von S9-Mix
Source text: Versuchsbedingungen: Haarsträhnchen aus 30-50 Haaren werden mit einem Mittel nach Beispiel 1, bei dem die Kupplersubstanz jeweils im äquimolaren Verhältnis zur Entwicklersubstanz enthalten war, getränkt. Die Strähnen wurden anschließend 30 Minuten lang bei 40 Grad Celsius im Klimaschrank aufbewahrt, sodann gründlich mit Wasser gespült und schließlich getrocknet. Die so gefärbten Haar wurden nun im 2,5 cm lange Stücke geschnitten und nach der Methodik von B.N. Ames an Salmonella typhimurium-Stämmen TA97, TA98 und TA100 in Anwesenheit von S9-Mix geprüft.

Salmonella typhimurium [6] = test: Ames test of hair dye solutions under oxidative conditions; details: hair dye solution containing the developer substance, unter oxidativen Bedingungen
[7] = Kupplersubstanz 2-Methylresorcin, äquimolar to the developer
[8] = Kupplersubstanz 3,4-Methylendioxyphenol, äquimolar to the developer
[9] = Kupplersubstanz 3-Aminophenol, äquimolar to the developer
[10] = Kupplersubstanz Resorcin, äquimolar to the developer

Row | Structure (SMILES) | Mutagenität in einigen dieser Teste [1] | sensibilisierende Eigenschaften [2] | Mutagenität im Mutagenitätstest nach Ames (Salmonella typhimurium [3]; in Abwesenheit von Wasserstoffperoxid) | Mutagenität im Mutagenitätstest nach Ames (Salmonella typhimurium [3]; in Anwesenheit von Wasserstoffperoxid) | Mutagenität im Chromosomenaberrationstest an CHO-Zellen in vitro (CA-Test) (CHO-Zellen) | Mutagenität im Mouse Lymphoma Test (Mouse Lymphoma) | Mutagenität im Sister-Chromatide-Exchange-Test (SCE-Test) [4] | Amesteste von gefärbten Haarsträhnen [5, 7] | Amesteste von gefärbten Haarsträhnen [5, 8] | Amesteste von gefärbten Haarsträhnen [5, 9] | Amesteste von gefärbten Haarsträhnen [5, 10] | Amesteste von gefärbten Haarsträhnen ([5]; ohne Kupplersubstanz) | mutagene Wirkung von Haarfärbelösungen im Amestest (Salmonella typhimurium [6])
1 | Nc1ccc(N)c(CO)c1 [2,5-Diaminobenzylalkohol, 1-Hydroxymethyl-2,5-diaminobenzol] | mutagenes Potential | sensibilisierend |  |  |  |  |  |  |  |  |  |  | 
2 | Nc1ccc(N)c(CCO)c1 [2-(2,5-Diaminophenyl)ethanol] |  |  | keinerlei Mutagenität | keinerlei Mutagenität | keinerlei Mutagenität | keinerlei Mutagenität | keinerlei Mutagenität | - | - | - | - | - | nicht mutagen
3 | Nc1ccc(N)cc1 [p-Phenylendiamin, reference compound] |  |  |  |  |  |  |  | + | + | (+) | (+) | + | mutagenes Potential
